According to US11141410B2 (MERCK SHARP & DOHME CORP., priority 2015, dated 2021):

Key:
MRSA COL (MB5393) [1] = experiment: TarO Inhibitor/β-Lactam Synergy Assay (growth, OD600); assay type: cell-based, Staphylococcus aureus; conditions: for MITC95 TarO inhibitor + 4 μg/mL IPM; Bacteria: SA_MB5393: in combination with 4 μg/mL imipenem (IPM); for MITC95 TarO inhibitor + 8 μg/mL DCX; Bacteria: SA_MB5393: in combination with 8 μg/mL dicloxacillin (DCX)
Method: The TarO inhibitor/β-lactam synergy assay was performed to measure the re-sensitization of methicillin-resistant Staphylococci bacteria (MB5393: MRSA COL) to β-lactam antibiotics by TarO inhibitors. MRSA COL is a hospital-acquired penicillinase-negative clinically isolated strain commonly used in Staphylococcus aureus studies and is fully resistant to the antimicrobial bioactivity of β-lactam antibiotics, including but not limited to imipenem and dicloxacillin. […] MRSA COL is fully refractory to β-lactam antibiotic effect at the current clinical breakpoint concentrations and as such MRSA COL is fully viable at these concentrations.
The β-lactam antibiotic concentration was fixed at the clinical breakpoint (imipenem 4 μg/ml or dicloxacillin 8 μg/ml) and the TarO inhibitors were titrated by 2 fold starting from the highest concentration of 200 μM with final DMSO concentration of 2% in the assay. 5×10^5 colony forming unit of MRSA COL in cation-adjusted Mueller Hinton broth (CAMHB) was then mixed and the assay plate was incubated for 20 hours at 37° C. without shaking. After 20 hours, the optical density at 600 nm (OD600) was read for all wells to determine relative growth of MRSA COL.

MRSA COL (MB5393) [2] = experiment: as above; assay type: cell-based; conditions: Staphylococcus aureus, TarO inhibitor alone, >200 μM = 95% growth inhibition not achieved, 20 hours at 37° C., read-out: MITC95 TarO inhibitor alone, Bacteria: SA_MB5393

| SMILES | MITC95 TarO inhibitor + 4 μg/mL IPM; Bacteria: SA_MB5393 (MRSA COL (MB5393) [1]) [µM] | MITC95 TarO inhibitor + 8 μg/mL DCX; Bacteria: SA_MB5393 (MRSA COL (MB5393) [1]) [µM] | IC95 (MRSA COL (MB5393) [2]) [µM] |
| --- | --- | --- | --- |
| Cc1nc(C(C)C)sc1CNC(=O)N1C(=O)O[C@H](c2cc(F)cc(C(F)(F)F)c2)[C@@H]1C [Example 20, (4S,5R)-5-[3-fluoro-5-(trifluoromethyl)phenyl]-4-methyl-N-{[4-methyl-2-(1-methylethyl)-1,3-thiazol-5-yl]methyl}-2-oxo-1,3-oxazolidine-3-carboxamide] | 0.43 | 3.65 | > 200 |
| C[C@H]1[C@@H](c2cc(F)cc(C(F)(F)F)c2)OC(=O)N1C(=O)NCc1ccccc1Cl [Example 21, (4S,5R)-N-(2-chlorobenzyl)-5-[3-fluoro-5-(trifluoromethyl)phenyl]-4-methyl-2-oxo-1,3-oxazolidine-3-carboxamide] | 0.16 | 1.73 | > 200 |
| C[C@H]1[C@@H](c2cc(F)cc(C(F)(F)F)c2)OC(=O)N1C(=O)NCc1cccc2nccnc12 [Example 22, (4S,5R)-5-[3-fluoro-5-(trifluoromethyl)phenyl]-4-methyl-2-oxo-N-(quinoxalin-5-ylmethyl)-1,3-oxazolidine-3-carboxamide] | 0.49 | 6.25 | > 200 |
| C[C@H]1[C@@H](c2cc(F)cc(C(F)(F)F)c2)OC(=O)N1C(=O)NCc1ccnc2ccccc12 [Example 23, (4S,5R)-5-[3-fluoro-5-(trifluoromethyl)phenyl]-4-methyl-2-oxo-N-(quinolin-4-ylmethyl)-1,3-oxazolidine-3-carboxamide] | 0.61 | 4.84 | > 200 |
| COc1ccccc1CNC(=O)N1C(=O)O[C@H](c2cccc(C(F)(F)F)c2)[C@@H]1C [Example 24, (4S,5R)-N-(2-methoxybenzyl)-4-methyl-2-oxo-5-[3-(trifluoromethyl)phenyl]-1,3-oxazolidine-3-carboxamide] | 0.20 | 7.29 | > 200 |
| C[C@H]1[C@@H](c2cc(F)cc(Br)c2)OC(=O)N1C(=O)NCc1cncc2ccccc12 [Example 25, (4S,5R)-5-(3-bromo-5-fluorophenyl)-N-(isoquinolin-4-ylmethyl)-4-methyl-2-oxo-1,3-oxazolidine-3-carboxamide] | 0.22 | 1.38 | > 200 |
| C[C@H]1[C@@H](c2cc(F)cc(C3CC3)c2)OC(=O)N1C(=O)NCc1cncc2ccccc12 [Example 26, (4S,5R)-5-(3-cyclopropyl-5-fluorophenyl)-N-(isoquinolin-4-ylmethyl)-4-methyl-2-oxo-1,3-oxazolidine-3-carboxamide] | 0.25 | 0.99 | > 200 |
| C[C@H]1[C@@H](c2cccc(C(C)(F)F)c2)OC(=O)N1C(=O)NCc1cncc2ccccc12 [Example 27, (4S,5R)-5-[3-(1,1-difluoroethyl)phenyl]-N-(isoquinolin-4-ylmethyl)-4-methyl-2-oxo-1,3-oxazolidine-3-carboxamide] | 0.39 | 3.65 | > 200 |
| C[C@H]1[C@@H](c2cc(C(F)(F)F)cc(C(F)(F)F)c2)OC(=O)N1C(=O)NCc1ncccc1Br [Example 28, (4S,5R)-5-[3,5-bis(trifluoromethyl)phenyl]-N-[(3-bromopyridin-2-yl)methyl]-4-methyl-2-oxo-1,3-oxazolidine-3-carboxamide] | 0.70 | 4.69 | > 200 |
| Cc1nn(C)c(C)c1CNC(=O)N1C(=O)O[C@H](c2cc(F)cc(C(F)(F)F)c2)[C@@H]1C [Example 29, (4S,5R)-5-[3-fluoro-5-(trifluoromethyl)phenyl]-4-methyl-2-oxo-N-[(1,3,5-trimethyl-1H-pyrazol-4-yl)methyl]-1,3-oxazolidine-3-carboxamide] | 0.78 | 5.21 | > 200 |
| C[C@H]1[C@@H](c2cc(F)cc(C(F)(F)F)c2)OC(=O)N1C(=O)NCc1cccc2cncnc12 [Example 30, (4S,5R)-5-[3-fluoro-5-(trifluoromethyl)phenyl]-4-methyl-2-oxo-N-(quinazolin-8-ylmethyl)-1,3-oxazolidine-3-carboxamide] | 0.68 | 4.69 | > 200 |
| Cc1cccnc1CNC(=O)N1C(=O)O[C@H](c2cc(C(F)(F)F)cc(C(F)(F)F)c2)[C@@H]1C [Example 31, (4S,5R)-5-[3,5-bis(trifluoromethyl)phenyl]-4-methyl-N-[(3-methylpyridin-2-yl)methyl]-2-oxo-1,3-oxazolidine-3-carboxamide] | 0.43 | 8.33 | > 200 |
| C[C@H]1[C@@H](c2cc(F)cc(C(F)(F)F)c2)OC(=O)N1C(=O)NCc1ccccc1-n1cccc1 [Example 32, (4S,5R)-5-[3-fluoro-5-(trifluoromethyl)phenyl]-4-methyl-2-oxo-N-[2-(1H-pyrrol-1-yl)benzyl]-1,3-oxazolidine-3-carboxamide] | 0.59 | 4.69 | > 200 |
| C[C@H]1[C@@H](c2cccc(C(F)F)c2)OC(=O)N1C(=O)NCc1cncc2ccccc12 [Example 33, (4S,5R)-5-[3-(difluoromethyl)phenyl]-N-(isoquinolin-4-ylmethyl)-4-methyl-2-oxo-1,3-oxazolidine-3-carboxamide] | 1.37 | 9.38 | > 200 |
| C[C@H]1[C@@H](c2cc(F)cc(C(F)(F)F)c2)OC(=O)N1C(=O)NCc1ccnc2cccnc12 [Example 34, (4S,5R)-5-[3-fluoro-5-(trifluoromethyl)phenyl]-4-methyl-N-(1,5-naphthyridin-4-ylmethyl)-2-oxo-1,3-oxazolidine-3-carboxamide] | 1.95 | 14.06 | > 200 |
| Cc1cnc(F)c(CNC(=O)N2C(=O)O[C@H](c3cc(C(F)(F)F)cc(C(F)(F)F)c3)[C@@H]2C)c1 [Example 35, (4S,5R)-5-[3,5-bis(trifluoromethyl)phenyl]-N-[(2-fluoro-5-methylpyridin-3-yl)methyl]-4-methyl-2-oxo-1,3-oxazolidine-3-carboxamide] | 0.10 | 0.98 | > 200 |
| C[C@H]1[C@@H](c2cc(F)cc(C(F)(F)F)c2)OC(=O)N1C(=O)NCc1ccccc1CN(C)C [Example 36, (4S,5R)-N-{2-[(dimethylamino)methyl]benzyl}-5-[3-fluoro-5-(trifluoromethyl)phenyl]-4-methyl-2-oxo-1,3-oxazolidine-3-carboxamide] | 6.25 | 25 | > 200 |
| C[C@H]1[C@@H](c2cc(F)cc(C(F)(F)F)c2)OC(=O)N1C(=O)NCc1cccc2ncccc12 [Example 37, (4S,5R)-5-[3-fluoro-5-(trifluoromethyl)phenyl]-4-methyl-2-oxo-N-(quinolin-5-ylmethyl)-1,3-oxazolidine-3-carboxamide] | 0.98 | 2.73 | > 200 |
| COc1cccnc1CNC(=O)N1C(=O)O[C@H](c2cc(C(F)(F)F)cc(C(F)(F)F)c2)[C@@H]1C [Example 38, (4S,5R)-5-[3,5-bis(trifluoromethyl)phenyl]-N-[(3-methoxypyridin-2-yl)methyl]-4-methyl-2-oxo-1,3-oxazolidine-3-carboxamide] | 1.56 | 25 | > 200 |
